The source of these data is BindingDB's records for patent WO2025045746 (695 Avenue de la Résistance, 2025).

In general, IC50 refers to the midpoint of a concentration-inhibition curve. Low values mean inhibition by little substance, high ones a need for much substance.

In the assay the target is T1, NAD(+) hydrolase SARM1 [28-724] (UniProt Q6SZW1).
T1 construct: 28-724
T1 sequence (Q6SZW1 whole entry): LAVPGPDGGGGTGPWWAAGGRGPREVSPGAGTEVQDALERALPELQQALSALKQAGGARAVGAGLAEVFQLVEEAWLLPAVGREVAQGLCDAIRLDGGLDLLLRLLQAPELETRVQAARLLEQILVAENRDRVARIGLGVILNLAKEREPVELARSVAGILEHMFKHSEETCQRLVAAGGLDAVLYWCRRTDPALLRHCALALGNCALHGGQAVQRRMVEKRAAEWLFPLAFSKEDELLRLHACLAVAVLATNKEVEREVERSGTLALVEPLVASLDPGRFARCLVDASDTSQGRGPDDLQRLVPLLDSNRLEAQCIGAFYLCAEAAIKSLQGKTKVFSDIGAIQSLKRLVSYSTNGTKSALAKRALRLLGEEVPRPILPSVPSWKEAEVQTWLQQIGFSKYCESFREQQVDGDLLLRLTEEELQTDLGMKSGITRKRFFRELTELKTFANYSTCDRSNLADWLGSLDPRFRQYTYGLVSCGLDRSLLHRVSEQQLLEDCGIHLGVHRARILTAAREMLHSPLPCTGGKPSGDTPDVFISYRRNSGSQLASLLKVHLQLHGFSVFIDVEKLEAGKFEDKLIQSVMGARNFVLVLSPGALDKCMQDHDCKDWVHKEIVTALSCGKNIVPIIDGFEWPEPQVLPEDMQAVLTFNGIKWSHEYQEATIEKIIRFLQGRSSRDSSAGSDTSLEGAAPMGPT
Briefly: SARM1 Inhibitory Activity. How it is done:
Assay reagents were prepared in 25mM HEPES pH 7.2, 50mM NaCl, 1mM EDTA and 0.0025% Tween20. […] The peak area of NAD and linear ADPR were measured by a RapidFire High Throughput Mass Spectrometry System (Agilent Technologies, Santa Clara, CA) using an API5000 triple quadrupole mass spectrometer (AB Sciex Framingham, MA). The ratio of linear ADPR to NAD peak area was then plotted against compound concentration to obtain an IC50 as fitted via non-linear regression.
In turn, `O=C(c1cc(-c2ccncc2)n[nH]1)N1CCC(c2ccc(F)cc2Cl)C1` (stereo unspecified) [WO2025045746, Example 8] came in with an IC50 of 458 nM. Next, `O=C(c1cc(-c2ccnnc2)n[nH]1)N1C[C@H](O)[C@H](c2ccc(Cl)cc2)C1` [WO2025045746, Example 34]: 5920 nM; `O=C(c1cc(-c2ccnnc2)n[nH]1)N1CC[C@H](c2ccc(F)c(F)c2)C1` [WO2025045746, Example 42]: 183 nM.

`Cc1cnccc1-c1cc(C(=O)N2CC[C@H](c3ccc(Cl)cc3)C2)[nH]n1` [WO2025045746, Example 57]: the IC50 stood at 2210 nM. Next, `O=C(c1cc(-c2ccncc2)n[nH]1)N1CCC(c2cccc(Cl)c2)C1` (stereo unspecified) [WO2025045746, Example 7]: 1280 nM; `O=C(c1cc(-c2ccnnc2)n[nH]1)N1CCC(c2ccc(Cl)c(F)c2)C1` (stereo unspecified) [WO2025045746, Example 39]: 73 nM.

For `O=C(c1cc(-c2ccncc2F)n[nH]1)N1CCC(c2ccc(Cl)cc2)C1` (stereo unspecified) [WO2025045746, Example 36], the midpoint of inhibition, the IC50, lay at 1220 nM. In the case of `O=C(c1[nH]nc(-c2ccnnc2)c1F)N1CC[C@H](c2ccc(Cl)cc2)C1` [WO2025045746, Example 63] it was 95 nM; in that of `CC1CN(C(=O)c2cc(-c3ccnnc3)n[nH]2)CC1c1ccc(Br)cc1` (stereo unspecified) [WO2025045746, Example 46], 188 nM.

`O=C(c1cc(-c2ccnnc2)n[nH]1)N1CCC(c2ccc(Cl)cn2)C1` (stereo unspecified) [WO2025045746, Example 20]: the half-inhibitory concentration (IC50) is 9660 nM.

In turn, `O=C(c1cc(-c2ccncc2)n[nH]1)N1CC(c2ccc(Cl)cc2)C2CCCCC21` (stereo unspecified) [WO2025045746, Example 32] registered an IC50 of 521 nM.

As to `O=C(c1cc(-c2ccnnc2)n[nH]1)N1CCC(F)(c2ccc(F)c(F)c2)C1` (stereo unspecified) [WO2025045746, Example 23], the midpoint of inhibition, the IC50, lay at 2270 nM. Next, `O=C(c1cc(-c2ccncc2)n[nH]1)N1CC[C@H](c2ccc(Cl)nc2)C1` [WO2025045746, Example 28]: 682 nM; `O=C(c1[nH]nc(-c2ccnnc2)c1Br)N1CC[C@@H](c2ccc(Cl)cc2)C1` [WO2025045746, Example 59]: 1780 nM. In the case of `C[C@H]1CN(C(=O)c2cc(-c3ccnnc3)n[nH]2)C[C@@H]1c1ccc(Br)cc1` [WO2025045746, Example 53] it was 84 nM; in that of `O=C(c1[nH]nc(-c2ccnnc2)c1F)N1CC[C@@H](c2ccc(Cl)cc2)C1` [WO2025045746, Example 64], 492 nM; in that of `O=C(c1cc(-c2ccnnc2)n[nH]1)N1C[C@H](c2ccc(Cl)cc2)[C@@H](O)C1` [WO2025045746, Example 31], 761 nM. Next, `O=C(c1[nH]nc(-c2ccnnc2)c1Br)N1CC[C@H](c2ccc(Cl)cc2)C1` [WO2025045746, Example 58]: 340 nM; `O=C(c1cc(-c2ccnnc2)n[nH]1)N1CCC(c2ccc(F)c(F)c2)C1` (stereo unspecified) [WO2025045746, Example 17]: 105 nM; `CC1(C)CC(c2ccccc2)CN1C(=O)c1cc(-c2ccncc2)n[nH]1` (stereo unspecified) [WO2025045746, Example 11]: 7390 nM.

`O=C(c1cc(-c2ccnnc2)n[nH]1)N1CCC(c2cccc(OC(F)(F)F)c2)C1` (stereo unspecified) [WO2025045746, Example 18] yielded an IC50 of 6180 nM.

`Cc1ccc(C2CCN(C(=O)c3cc(-c4ccnnc4)n[nH]3)C2)cc1` (stereo unspecified) [WO2025045746, Example 14] had an IC50 of 2910 nM.

Take `O=C(c1cc(-c2ccnnc2)n[nH]1)N1C[C@@H](F)[C@H](c2ccc(Cl)cc2)C1` [WO2025045746, Example 75]: the 50% inhibitory concentration (IC50) was 506 nM. Next, `C[C@@H]1C[C@H](c2ccc(F)cc2)CN1C(=O)c1cc(-c2ccnnc2)n[nH]1` [WO2025045746, Example 25]: 9540 nM; `COc1cc(C2CCN(C(=O)c3cc(-c4ccnnc4)n[nH]3)C2)cc(F)c1F` (stereo unspecified) [WO2025045746, Example 33]: 2120 nM; `O=C(c1cc(-c2ccnnc2)n[nH]1)N1CCC(c2cnc(Cl)s2)C1` (stereo unspecified) [WO2025045746, Example 37]: 1780 nM.

As for `N#Cc1ccc(C2CCN(C(=O)c3cc(-c4ccnnc4)n[nH]3)C2)cc1` (stereo unspecified) [WO2025045746, Example 16], the half-inhibitory concentration (IC50) amounted to 2170 nM. On to `C[C@@H]1CN(C(=O)c2cc(-c3ccnnc3)n[nH]2)C[C@H]1c1ccc(Br)cc1` [WO2025045746, Example 52], for which the IC50 worked out at 1360 nM. Next, `C[C@@H](O)[C@@H]1CN(C(=O)c2cc(-c3ccnnc3)n[nH]2)C[C@H]1c1ccc(Cl)cc1` [WO2025045746, Example 68]: 196 nM. On to `CC1CC(c2ccc(Cl)cc2)CN1C(=O)c1cc(-c2ccnnc2)n[nH]1` (stereo unspecified) [WO2025045746, Example 43], for which 8690 nM corresponded to half-maximal inhibition (IC50).

Regarding `O=C(c1cc(-c2ccnnc2)n[nH]1)N1CC[C@@H](c2cc(Cl)cs2)C1` [WO2025045746, Example 69], the concentration for half-maximal inhibition (IC50) amounted to 749 nM. In the case of `O=C(c1cc(-c2ccnnc2)n[nH]1)N1C[C@@H](O)[C@H](c2ccc(Cl)cc2)C1` [WO2025045746, Example 30] it was 172 nM; in that of `O=C(c1cc(-c2ccnnc2)n[nH]1)N1CC[C@@H](c2ccc(F)c(F)c2)C1` [WO2025045746, Example 41], 57 nM. As to `N#C[C@H]1CN(C(=O)c2cc(-c3ccnnc3)n[nH]2)C[C@@H]1c1ccc(Cl)cc1` [WO2025045746, Example 73], 30 nM corresponded to half-maximal inhibition (IC50). Regarding `N#Cc1ccc(C2CCN(C(=O)c3cc(-c4ccnnc4)n[nH]3)C2)s1` (stereo unspecified) [WO2025045746, Example 40], it took 746 nM to reach half-maximal inhibition (IC50). Next, `O=C(c1cc(-c2ccncc2)n[nH]1)N1CCC(c2ccc(Cl)cc2)C1` (stereo unspecified) [WO2025045746, Example 1]: 387 nM; `O=C(c1[nH]nc(-c2ccnnc2)c1Cl)N1CC[C@H](c2ccc(F)c(F)c2)C1` [WO2025045746, Example 50]: 68 nM. Next, `O=C(c1cc(-c2ccnnc2)n[nH]1)N1CCC(c2cc3ccccc3s2)C1` (stereo unspecified) [WO2025045746, Example 54]: 8130 nM; `O=C(c1cc(-c2ccncc2)n[nH]1)N1CCC2(CCc3cc(Br)ccc32)C1` (stereo unspecified) [WO2025045746, Example 3]: 3190 nM. In the case of `O=C(c1cc(-c2ccncc2)n[nH]1)N1CC[C@@H](c2ccc(Cl)cc2)C1` [WO2025045746, Example 27] it was 625 nM. Take `Cc1cnccc1-c1cc(C(=O)N2CC[C@@H](c3ccc(Cl)cc3)C2)[nH]n1` [WO2025045746, Example 56]: the IC50 was 500 nM. In the case of `O=C(c1cc(-c2ccnnc2)n[nH]1)N1CCC(c2ccc(Br)cc2)C1` (stereo unspecified) [WO2025045746, Example 51] it was 461 nM. Next, `O=C(c1cc(-c2ccnnc2)n[nH]1)N1CCC(F)(c2cc(F)cc(F)c2)C1` (stereo unspecified) [WO2025045746, Example 15]: 3740 nM; `COc1c(-c2ccnnc2)n[nH]c1C(=O)N1CCC(c2ccc(Cl)cc2)C1` (stereo unspecified) [WO2025045746, Example 35]: 698 nM. Regarding `O=C(c1cc(-c2ccnnc2)n[nH]1)N1CC[C@H](c2cc(Cl)cs2)C1` [WO2025045746, Example 70], 214 nM corresponded to half-maximal inhibition (IC50). In the case of `O=C(c1cc(-c2ccncc2)n[nH]1)N1CCC(c2ccccc2)C1` (stereo unspecified) [WO2025045746, Example 2] it was 4510 nM; in that of `O=C(c1cc(-c2ccncc2)n[nH]1)N1CC[C@@H](c2ccc(Cl)nc2)C1` [WO2025045746, Example 29], 2830 nM; in that of `O=C(c1cc(-c2ccnnc2)n[nH]1)N1CCC(c2ccc(Br)s2)C1` (stereo unspecified) [WO2025045746, Example 44], 114 nM. Next, `C[C@H](O)[C@@H]1CN(C(=O)c2cc(-c3ccnnc3)n[nH]2)C[C@H]1c1ccc(Cl)cc1` [WO2025045746, Example 67]: 217 nM; `O=C(c1cc(-c2ccnnc2)n[nH]1)N1CCC(c2ccc(Cl)s2)C1` (stereo unspecified) [WO2025045746, Example 10]: 98 nM; `C[C@@H]1CN(C(=O)c2cc(-c3ccnnc3)n[nH]2)C[C@H]1c1ccc(Cl)cc1` [WO2025045746, Example 65]: 51 nM. In the case of `O=C(c1cc(-c2ccncc2)n[nH]1)N1C[C@@H](O)[C@H](c2ccc(Cl)cc2)C1` [WO2025045746, Example 13] it was 624 nM. As for `O=C(c1cc(-c2ccncc2)n[nH]1)N1CCC(c2ccc(Cl)s2)C1` (stereo unspecified) [WO2025045746, Example 9], it took 194 nM to reach half-maximal inhibition (IC50).

In the case of `Cc1ccc(C2CCN(C(=O)c3cc(-c4ccnnc4)n[nH]3)C2)s1` (stereo unspecified) [WO2025045746, Example 45], the IC50 came to 1540 nM.

The molecule `O=C(c1cc(-c2ccnnc2)n[nH]1)N1C[C@H](O)[C@H](c2ccc(Cl)cc2)C1` [WO2025045746, Example 22] registered an IC50 of 9220 nM.

As for `O=C(c1[nH]nc(-c2ccnnc2)c1Cl)N1CCC(c2ccc(F)c(F)c2)C1` (stereo unspecified) [WO2025045746, Example 47], the IC50 was determined as 142 nM.
